Four compounds from US10324085B2, “Systems and methods for the monitoring of protein complex formation in cells” (priority 2013, dated 2019) can be followed below.

The target in experiment [1] is T1, RXRγ-RARα-CoRNBox complex (Homo sapiens, UniProt P10276).
T1 construct: expressed in transfected cells; host or cells: HEK293
T1 sequence (P10276 1-462): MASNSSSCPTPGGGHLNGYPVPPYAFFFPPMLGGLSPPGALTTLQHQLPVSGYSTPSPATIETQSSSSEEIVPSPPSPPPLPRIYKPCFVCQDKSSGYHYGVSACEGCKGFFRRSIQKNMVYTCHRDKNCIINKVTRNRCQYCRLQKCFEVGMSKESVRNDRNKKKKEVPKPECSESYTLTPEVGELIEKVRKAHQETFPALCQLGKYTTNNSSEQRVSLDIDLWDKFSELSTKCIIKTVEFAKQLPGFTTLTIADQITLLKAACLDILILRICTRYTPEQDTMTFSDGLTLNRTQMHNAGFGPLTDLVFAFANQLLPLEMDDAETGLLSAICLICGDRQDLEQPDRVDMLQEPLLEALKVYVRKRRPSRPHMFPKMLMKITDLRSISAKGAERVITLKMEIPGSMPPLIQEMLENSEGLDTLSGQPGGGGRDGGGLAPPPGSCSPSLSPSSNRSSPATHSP
T1 sequence (P48443 1-463 partner): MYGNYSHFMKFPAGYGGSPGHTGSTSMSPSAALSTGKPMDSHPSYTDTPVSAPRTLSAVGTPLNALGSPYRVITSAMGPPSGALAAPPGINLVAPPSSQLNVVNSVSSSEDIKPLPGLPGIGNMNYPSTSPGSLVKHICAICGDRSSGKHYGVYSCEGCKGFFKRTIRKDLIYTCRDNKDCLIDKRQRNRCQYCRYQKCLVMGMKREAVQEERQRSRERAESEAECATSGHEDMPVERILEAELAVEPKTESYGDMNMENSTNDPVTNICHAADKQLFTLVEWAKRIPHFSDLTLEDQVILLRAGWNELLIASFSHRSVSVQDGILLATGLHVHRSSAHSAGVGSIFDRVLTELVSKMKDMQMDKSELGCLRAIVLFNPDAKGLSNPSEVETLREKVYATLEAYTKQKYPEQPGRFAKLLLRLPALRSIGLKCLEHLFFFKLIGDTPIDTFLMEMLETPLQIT
The experiment can be described thus: BRETFect RXRγ-RARα-CoRNBox ternary complex in HEK293 cells. Format: cell-based. The settings on record: 1 μM, 40 min.
Protocol: Cells were treated for 40 min with vehicle DMSO (0) or all-trans retinoic acid (ATRA) before coelenterazine H addition and BRET measurement.

In the next experiment the target is ERβ (Homo sapiens, UniProt Q92731).
Experiment [2] concerns the target T2, ERα-ERα (Homo sapiens, UniProt P03372).
T2 construct: expressed in transfected cells; host or cells: HEK293
In words: cell-based.
Target sequence in this assay (P03372 whole entry): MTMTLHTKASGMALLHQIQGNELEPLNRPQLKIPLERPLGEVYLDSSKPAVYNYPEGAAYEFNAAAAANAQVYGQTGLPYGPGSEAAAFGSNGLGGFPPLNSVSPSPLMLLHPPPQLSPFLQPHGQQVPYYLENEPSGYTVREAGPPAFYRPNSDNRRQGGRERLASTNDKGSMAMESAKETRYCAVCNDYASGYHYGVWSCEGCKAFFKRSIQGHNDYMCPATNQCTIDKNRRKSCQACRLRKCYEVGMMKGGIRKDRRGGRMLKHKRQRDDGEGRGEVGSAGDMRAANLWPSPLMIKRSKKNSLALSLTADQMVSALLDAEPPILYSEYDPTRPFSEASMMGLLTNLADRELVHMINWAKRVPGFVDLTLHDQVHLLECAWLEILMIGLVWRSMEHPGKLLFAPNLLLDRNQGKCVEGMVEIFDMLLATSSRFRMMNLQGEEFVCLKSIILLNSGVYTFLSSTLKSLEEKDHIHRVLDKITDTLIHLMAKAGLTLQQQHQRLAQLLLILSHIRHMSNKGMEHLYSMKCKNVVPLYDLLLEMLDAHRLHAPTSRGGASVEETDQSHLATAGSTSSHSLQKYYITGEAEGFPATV

Experiment [3] concerns the target T3, ERα-ERβ (Homo sapiens, UniProt P03372+Q92731).
T3 construct: expressed in transfected cells; host or cells: HEK293
In words: cell-based.
Target sequence in this assay (Q92731 whole entry): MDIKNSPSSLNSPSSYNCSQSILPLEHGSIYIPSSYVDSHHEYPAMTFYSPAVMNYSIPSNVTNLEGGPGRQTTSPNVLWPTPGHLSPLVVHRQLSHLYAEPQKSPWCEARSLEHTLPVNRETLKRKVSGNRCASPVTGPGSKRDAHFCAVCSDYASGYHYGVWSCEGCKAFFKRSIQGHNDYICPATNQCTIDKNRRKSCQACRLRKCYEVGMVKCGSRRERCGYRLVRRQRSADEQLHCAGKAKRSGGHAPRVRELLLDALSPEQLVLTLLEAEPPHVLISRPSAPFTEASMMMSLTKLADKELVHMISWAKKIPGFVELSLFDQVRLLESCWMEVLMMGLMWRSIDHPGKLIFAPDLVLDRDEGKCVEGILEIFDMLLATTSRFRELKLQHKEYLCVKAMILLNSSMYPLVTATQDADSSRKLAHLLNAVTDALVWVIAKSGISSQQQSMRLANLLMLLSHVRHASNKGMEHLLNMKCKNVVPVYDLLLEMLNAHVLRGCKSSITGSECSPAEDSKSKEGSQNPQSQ
Target sequence in this assay (P03372 whole entry): as the sequence (P03372 whole entry) above
Target sequence in this assay (as listed by the source): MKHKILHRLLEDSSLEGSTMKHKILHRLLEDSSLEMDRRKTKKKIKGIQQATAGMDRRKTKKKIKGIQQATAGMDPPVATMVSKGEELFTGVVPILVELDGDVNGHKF

The target in experiment [4] is T2, ERα-ERα. In words: cell-based. Conditions: BRETFect titration curves, HEK293 cells, average of three biological replicates; read-out: EC50 (nM), recruitment of SRC1-RID, ERα-ERα.
Target sequence in this assay (P03372 whole entry): as the sequence (P03372 whole entry) above
Target sequence in this assay (Q15788 626-753, further chain): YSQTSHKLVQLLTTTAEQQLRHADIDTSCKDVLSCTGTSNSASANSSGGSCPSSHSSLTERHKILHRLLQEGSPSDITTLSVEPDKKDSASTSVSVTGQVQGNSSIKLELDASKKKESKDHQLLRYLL
Experiment [5] addresses T3, ERα-ERβ. In words: cell-based. Conditions: BRETFect titration curves, HEK293 cells, average of three biological replicates; read-out: EC50 (nM), recruitment of SRC1-RID, ERα-ERβ.
Target sequence in this assay (Q15788 626-753): as the sequence (Q15788 626-753, further chain) above
Target sequence in this assay (P03372 whole entry): as the sequence (P03372 whole entry) above
Target sequence in this assay (Q92731 whole entry): as the sequence (Q92731 whole entry) above

Several values for one entry are separate records, joined by “and”; a condition that tells them apart may be missing. Equal entries are not always repeated. Where two headings read alike, the source gives them in different places.

ERβ, sequence (Q92731 whole entry, species assumed): as the sequence (Q92731 whole entry) above

On to `CC1=C(/C=C/C(C)=C/C=C/C(C)=C/C(=O)O)C(C)(C)CCC1` [ATRA, all-trans retinoic acid], for which the “RXRγ-RARα-CoRNBox ternary complex, net BRET” value in experiment [1] was “the ternary complex is disassembled”.
Regarding `C[C@]12CC[C@@H]3c4ccc(O)cc4CC[C@H]3[C@@H]1CC[C@@H]2O` [E2, 17-beta-Estradiol], on ERβ, the “recruitment of CoApep-Venus to ERβ, BRET” value is “E2-induced”.
For `CCCc1c(-c2ccc(O)cc2)nn(-c2ccc(O)cc2)c1-c1ccc(O)cc1` [PPT, propylpyrazole triol], the half-maximal effective concentration (EC50) (commonly the concentration giving half of the maximal effect) at ERα-ERα [2] (BRETFect titration curves, HEK293 cells, average of three biological replicates, read-out: EC50 (nM), recruitment of the coactivator motif peptide, ERα-ERα) was 0.5 nM and 0.547 nM; on ERα-ERβ [3] (BRETFect titration curves, HEK293 cells, average of three biological replicates, read-out: EC50 (nM), recruitment of the coactivator motif peptide, ERα-ERβ), 28 nM and 28.4 nM; at ERα-ERα [4], 0.968 nM; at ERα-ERβ [5], 25.1 nM. Moreover, the “% of the BRETmax for CoApep recruitment by ERα-ERβ heterodimer” value at ERα-ERβ [3] (relative to BRETmax observed with E2) worked out at 50%.
As for 4-hydroxytamoxifen [OHT], the “BRETFect signal (delta BRET), coactivator motif recruitment to ERα dimers” value at ERα-ERα [2] is recorded as “suppresses coactivator motif recruitment”.
